Experimental data published in US20240407363A1 (priority 2021, published 2024).

System: Xanthomonas perforans
Assay: Field trials on hexanoic acid, bacterial spot of tomato (cv. Red bounty)
Type: in vivo
Details: for AUDPC / BS last rating of bacterial spot severity / YIELD: cv. Red bounty, ManKocide 2.1 mg/ml foliar spray, hexanoic acid 0.5 mg/ml drench (50 ml/plant)
Protocol: Table 3 notes: Data from 2 repeated field experiments: BS1/BS2=bacterial disease severity in Exp. 1/Exp. 2; AUDPC1/AUDPC2=area under the disease progress curve in Exp. 1/Exp. 2; YIELD 1/YIELD 2=fruit yield (Kg/plant) in Exp/1/Exp.2; KOCIDER=Kocide® 3000 (Cu bactericide) at 1.75 lb/acre (=2.1 mg/mL) by sprays; MANKO=Mankocide® (Cu+mancozeb) at 1.75 lb/acre by foliar spray; HEXANO=hexanoic acid at 0.5 mg/mL (=500 mg/L) by root drench weekly for a total of 8 weeks.
It is noted regarding the table above that: (1) data in this table were from 2 repeated field experiments, whereas those in FIG. 9 were from a greenhouse preliminary test; and (2) in the field experiments, Hx at 500 mg/L was weekly applied as soil drench for a total of 8 weeks. In the greenhouse test (FIG. 9), Hx at 512 mg/L was applied only one time as soil drench at 1, 3, or 7 days prior to the bacterial inoculation, respectively.
Tomato seedlings were transplanted in fall for the first trial (trial 1) and spring for the second trial (trial 2). Treatments were started about two weeks after transplanting following weekly applications for a total of eight weeks. Tomato plants were inoculated with the pathogen Xanthomonas perforans (1-5×10^6 cfu/ml) the following day in the afternoon after the third treatment. Disease severity was rated weekly when bacterial spot symptoms were observed, and area under the disease progress curve (AUDPC) was calculated. Tomato fruit were harvested two to three times for each trial and graded according to the USDA standard. Total fruit yield in each treatment and the untreated control (CK) was subjected to statistical analysis using SAS (version 9.2, SAS Institute Inc., Cary, NC, USA). Disease severity of last rating and AUDPC from each trial were analyzed and presented.
Hexanoic acid at 0.5 mg/ml was drenched (50 ml/plant) to the base of each plant. This chemical was evaluated in two independent trials. Tomato cultivar was ‘Red bounty’.

[1] = 0.5 mg/ml applied as root drench (50 ml/plant)
[2] = Experiment 1, Kocide 3000 1.75 lb/acre (=2.1 mg/mL) sprays, Mankocide 1.75 lb/acre foliar spray, hexanoic acid 0.5 mg/mL root drench weekly for 8 weeks
[3] = Experiment 2, Kocide 3000 1.75 lb/acre (=2.1 mg/mL) sprays, Mankocide 1.75 lb/acre foliar spray, hexanoic acid 0.5 mg/mL root drench weekly for 8 weeks

**Q.** With `CCCCCC(=O)O` [Hexanoic acid, hexanoic acid] as the compound, how does the “effect on disease reduction compared to ManKocide at the label rate of 2.1 mg/ml” value [1] read?
**A.** even better than ManKocide®

**Q.** What about the “marketable tomato fruit yield compared to controls” value [1] of the same compound?
**A.** greater than the untreated control (CK) and ManKocide® in one of the two independent trials

**Q.** What about the “bacterial spot disease severity and AUDPC compared to the untreated control (CK)” value (0.5 mg/ml applied as root drench (50 ml/plant), Homestead, FL 2020-2021) of the same compound?
**A.** significantly (P<0.05) reduced bacterial spot disease severity at the last rating and the overall disease progress

**Q.** What about the “AUDPC1 area under the disease progress curve” value [2] of the same compound?
**A.** 95.93 c

**Q.** What about the “BS1 bacterial disease severity” value [2] of the same compound?
**A.** 10.8 d %

**Q.** What about the YIELD1 fruit yield [2] of the same compound?
**A.** 8.83 a Kg/plant

**Q.** What about the “AUDPC2 area under the disease progress curve” value [3] of the same compound?
**A.** 390.1 c

**Q.** And the “BS2 bacterial disease severity” value [3]?
**A.** 41.3 c %

**Q.** What about the YIELD2 fruit yield [3] of the same compound?
**A.** 2.76 a Kg/plant

**Q.** And the AUDPC (Trial 1)?
**A.** 95.9 c

**Q.** What about the “BS last rating of bacterial spot severity” value (Trial 1) of the same compound?
**A.** 10.8 c %

**Q.** And the YIELD (Trial 1)?
**A.** 8.83 a kg/plant

**Q.** And the AUDPC (Trial 2)?
**A.** 390.1 c

**Q.** And the “BS last rating of bacterial spot severity” value (Trial 2)?
**A.** 41.3 b %

**Q.** And the YIELD (Trial 2)?
**A.** 2.76 a kg/plant
